# Experiments:
# HCT-116 [1] = assay: Induction of apoptosis in human HCT-116 cells assessed as viable cells at 5 uM incubated for > 6 hrs by annexin V/PI staining based analysis (Rvb=90.04%); assay type: functional; details: read-out: Activity
# [2] = molecular target: Dual specificity protein kinase CLK2 (Homo sapiens, UniProt P49760); assay: Inhibition of N-terminal FLAG-tagged human CLK2 at 123 nM in the presence of ATP by Kinome scan method relative to control; details: time > 6.0 hrs
# [3] = molecular target: Dual specificity protein kinase CLK3 (Homo sapiens) (UniProt P49761); assay: Inhibition of CLK3 (unknown origin) at 1110 nM in the presence of ATP by Kinome scan method relative to control; details: time > 6.0 hrs
# [4] = molecular target: Dual specificity tyrosine-phosphorylation-regulated kinase 4 (Homo sapiens) (UniProt Q9NR20); assay: Inhibition of DYRK4 (unknown origin) at 1110 nM in the presence of ATP by Kinome scan method relative to control; details: time > 6.0 hrs
# [5] = molecular target: AMP-activated protein kinase (AMPK) alpha-1/beta-1/gamma-1 (Homo sapiens) (UniProt P54619+Q9Y478+Q13131); assay: Inhibition of AMPK A1/B1/G1 (unknown origin) at 1000 nM in the presence of ATP by Kinome scan method relative to control; assay type: protein-complex assay
# [6] = molecular target: Tyrosine-protein kinase receptor UFO (Homo sapiens) (UniProt P30530); assay: Inhibition of AXL (unknown origin) at 100 nM in the presence of ATP by Kinome scan method relative to control
# [7] = molecular target: T1, Cyclin-dependent kinase 5/CDK5 activator 1 (Homo sapiens) (UniProt Q00535+Q15078); assay: Inhibition of CDK5/p25 (unknown origin) at 1000 nM in the presence of ATP by Kinome scan method relative to control; assay type: protein-complex assay
# [8] = molecular target: T1, Cyclin-dependent kinase 5/CDK5 activator 1 (Homo sapiens); assay: Inhibition of CDK5/p35 (unknown origin) at 1000 nM in the presence of ATP by Kinome scan method relative to control; assay type: protein-complex assay
# [9] = molecular target: Casein kinase I isoform delta (Homo sapiens) (UniProt P48730); assay: Inhibition of CSNK1D (unknown origin) at 1000 nM in the presence of ATP by Kinome scan method relative to control
# [10] = molecular target: Inhibitor of nuclear factor kappa-B kinase subunit beta (Homo sapiens) (UniProt O14920); assay: Inhibition of IKBKB (unknown origin) at 1000 nM in the presence of ATP by Kinome scan method relative to control
# [11] = molecular target: Dual specificity mitogen-activated protein kinase kinase 1 (Homo sapiens) (UniProt Q02750); assay: Inhibition of MAP2K1 (unknown origin) at 100 nM in the presence of ATP by Kinome scan method relative to control
# [12] = molecular target: Mitogen-activated protein kinase 1 (Homo sapiens) (UniProt P28482); assay: Inhibition of MAPK1 (unknown origin) at 1000 nM in the presence of ATP by Kinome scan method relative to control
# [13] = molecular target: Mitogen-activated protein kinase 3 (Homo sapiens) (UniProt P27361); assay: Inhibition of MAPK3 (unknown origin) at 1000 nM in the presence of ATP by Kinome scan method relative to control
# [14] = molecular target: Serine/threonine-protein kinase Nek2 (Homo sapiens) (UniProt P51955); assay: Inhibition of NEK2 (unknown origin) at 100 nM in the presence of ATP by Kinome scan method relative to control
# [15] = molecular target: Serine/threonine-protein kinase pim-1 (Homo sapiens) (UniProt P11309); assay: Inhibition of PIM1 (unknown origin) at 100 nM in the presence of ATP by Kinome scan method relative to control
# [16] = molecular target: cAMP-dependent protein kinase catalytic subunit alpha (Homo sapiens) (UniProt P17612); assay: Inhibition of PRKACA (unknown origin) at 1000 nM in the presence of ATP by Kinome scan method relative to control
# [17] = molecular target: Focal adhesion kinase 1 (Homo sapiens) (UniProt Q05397); assay: Inhibition of PTK2 (unknown origin) at 1000 nM in the presence of ATP by Kinome scan method relative to control
# [18] = molecular target: Rho-associated protein kinase 1 (Homo sapiens) (UniProt Q13464); assay: Inhibition of ROCK1 (unknown origin) at 1000 nM in the presence of ATP by Kinome scan method relative to control
# [19] = molecular target: Proto-oncogene tyrosine-protein kinase ROS (Homo sapiens) (UniProt P08922); assay: Inhibition of ROS1 (unknown origin) at 100 nM in the presence of ATP by Kinome scan method relative to control
# [20] = molecular target: Proto-oncogene tyrosine-protein kinase Src (Homo sapiens) (UniProt P12931); assay: Inhibition of SRC (unknown origin) at 1000 nM in the presence of ATP by Kinome scan method relative to control
# [21] = molecular target: Death-associated protein kinase 1 (Homo sapiens) (UniProt P53355); assay: Inhibition of DAPK1 (unknown origin) at 100 nM in the presence of ATP by Kinome scan method relative to control
# [22] = molecular target: PI3-kinase p110-alpha/p85-alpha (Homo sapiens) (UniProt P27986+P42336); assay: Inhibition of PIK3CA/PIK3R1 (unknown origin) at 1000 nM in the presence of ATP by Kinome scan method relative to control; assay type: protein-complex assay
# HCT-116 [23] = assay: Induction of cell cycle arrest in human HCT-116 cells assessed as G2/M phase at 0.5 uM incubated for 6 hrs by flow cytometry analysis (Rvb=25.8%); assay type: functional
# HCT-116 [24] = assay: Induction of cell cycle arrest in human HCT-116 cells assessed as S phase at 0.5 uM incubated for 6 hrs by flow cytometry analysis (Rvb=39.3%); assay type: functional
# HCT-116 [25] = assay: Induction of cell cycle arrest in human HCT-116 cells assessed as sub G0/G1 phase at 1 uM incubated for 6 hrs by flow cytometry analysis (Rvb=1.6%); assay type: functional
# HCT-116 [26] = assay: Induction of cell cycle arrest in human HCT-116 cells assessed as G0/G1 phase at 1 uM incubated for 6 hrs by flow cytometry analysis (Rvb=35.0%); assay type: functional
# HCT-116 [27] = assay: Induction of cell cycle arrest in human HCT-116 cells assessed as G2/M phase at 5 uM incubated for 6 hrs by flow cytometry analysis (Rvb=25.8%); assay type: functional
# HCT-116 [28] = assay: Induction of cell cycle arrest in human HCT-116 cells assessed as G2/M phase at 0.1 uM incubated for 24 hrs by flow cytometry analysis (Rvb=17.9%); assay type: functional
# HCT-116 [29] = assay: Induction of cell cycle arrest in human HCT-116 cells assessed as S phase at 0.5 uM incubated for 24 hrs by flow cytometry analysis (Rvb=46.4%); assay type: functional
# HCT-116 [30] = assay: Induction of cell cycle arrest in human HCT-116 cells assessed as sub G0/G1 phase at 1 uM incubated for 24 hrs by flow cytometry analysis (Rvb=2.5%); assay type: functional
# T1 sequence (Q00535 whole entry): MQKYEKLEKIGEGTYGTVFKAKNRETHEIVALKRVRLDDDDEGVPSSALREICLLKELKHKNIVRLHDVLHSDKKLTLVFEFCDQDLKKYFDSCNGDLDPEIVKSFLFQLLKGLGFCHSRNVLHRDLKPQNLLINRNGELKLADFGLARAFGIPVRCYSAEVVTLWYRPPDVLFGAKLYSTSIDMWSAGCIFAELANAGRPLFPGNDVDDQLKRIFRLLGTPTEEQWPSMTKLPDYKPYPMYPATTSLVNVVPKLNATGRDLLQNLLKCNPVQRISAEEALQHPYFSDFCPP
# T1 sequence (Q15078 99-307 partner limits assumed): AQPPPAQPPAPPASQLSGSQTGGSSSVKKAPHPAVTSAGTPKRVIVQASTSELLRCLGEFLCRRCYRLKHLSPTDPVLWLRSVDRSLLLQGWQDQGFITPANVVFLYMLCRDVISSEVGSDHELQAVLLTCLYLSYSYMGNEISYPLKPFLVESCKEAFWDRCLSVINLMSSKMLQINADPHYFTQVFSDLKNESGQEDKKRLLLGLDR
# Chain of Dual specificity protein kinase CLK3 (Homo sapiens) (P49761 whole entry, looked up): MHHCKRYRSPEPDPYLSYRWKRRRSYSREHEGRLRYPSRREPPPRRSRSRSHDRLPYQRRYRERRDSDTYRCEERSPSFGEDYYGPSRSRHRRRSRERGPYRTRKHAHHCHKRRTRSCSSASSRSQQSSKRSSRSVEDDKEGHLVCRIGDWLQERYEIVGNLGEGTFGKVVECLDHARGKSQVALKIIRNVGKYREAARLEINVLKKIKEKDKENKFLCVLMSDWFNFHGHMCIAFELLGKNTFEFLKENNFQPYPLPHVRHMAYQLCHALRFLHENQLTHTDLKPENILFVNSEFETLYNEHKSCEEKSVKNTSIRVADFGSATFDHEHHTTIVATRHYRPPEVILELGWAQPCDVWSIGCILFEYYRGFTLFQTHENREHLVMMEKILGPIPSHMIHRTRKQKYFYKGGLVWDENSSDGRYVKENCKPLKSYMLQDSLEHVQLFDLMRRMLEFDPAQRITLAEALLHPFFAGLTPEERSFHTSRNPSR
# Chain of AMP-activated protein kinase (AMPK) alpha-1/beta-1/gamma-1 (Homo sapiens) (P54619 whole entry): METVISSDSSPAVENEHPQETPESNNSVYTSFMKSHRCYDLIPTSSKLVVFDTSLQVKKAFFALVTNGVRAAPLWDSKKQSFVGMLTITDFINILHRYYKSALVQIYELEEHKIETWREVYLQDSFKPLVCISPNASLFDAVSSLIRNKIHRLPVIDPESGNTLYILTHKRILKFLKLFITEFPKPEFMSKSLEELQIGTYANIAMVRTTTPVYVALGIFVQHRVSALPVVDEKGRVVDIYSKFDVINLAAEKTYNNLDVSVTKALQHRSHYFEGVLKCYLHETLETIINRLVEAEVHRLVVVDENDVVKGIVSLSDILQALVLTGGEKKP
# Chain of AMP-activated protein kinase (AMPK) alpha-1/beta-1/gamma-1 (Homo sapiens) (Q13131 whole entry partner): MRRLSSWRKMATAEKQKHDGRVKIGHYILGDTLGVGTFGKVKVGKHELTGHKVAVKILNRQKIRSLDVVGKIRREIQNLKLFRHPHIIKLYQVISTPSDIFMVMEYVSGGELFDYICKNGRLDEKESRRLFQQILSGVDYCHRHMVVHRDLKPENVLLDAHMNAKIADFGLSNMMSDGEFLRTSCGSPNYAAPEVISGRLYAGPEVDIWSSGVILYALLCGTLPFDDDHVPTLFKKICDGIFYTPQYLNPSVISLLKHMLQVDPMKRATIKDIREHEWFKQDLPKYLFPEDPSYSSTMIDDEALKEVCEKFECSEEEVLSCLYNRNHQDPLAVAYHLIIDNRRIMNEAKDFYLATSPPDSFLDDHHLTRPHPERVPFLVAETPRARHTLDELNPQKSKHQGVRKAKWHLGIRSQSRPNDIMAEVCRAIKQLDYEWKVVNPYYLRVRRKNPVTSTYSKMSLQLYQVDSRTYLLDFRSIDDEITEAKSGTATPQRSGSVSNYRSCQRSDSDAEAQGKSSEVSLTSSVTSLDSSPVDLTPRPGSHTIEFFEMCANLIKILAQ
# Chain of AMP-activated protein kinase (AMPK) alpha-1/beta-1/gamma-1 (Homo sapiens) (Q9Y478 2-270 partner limits assumed): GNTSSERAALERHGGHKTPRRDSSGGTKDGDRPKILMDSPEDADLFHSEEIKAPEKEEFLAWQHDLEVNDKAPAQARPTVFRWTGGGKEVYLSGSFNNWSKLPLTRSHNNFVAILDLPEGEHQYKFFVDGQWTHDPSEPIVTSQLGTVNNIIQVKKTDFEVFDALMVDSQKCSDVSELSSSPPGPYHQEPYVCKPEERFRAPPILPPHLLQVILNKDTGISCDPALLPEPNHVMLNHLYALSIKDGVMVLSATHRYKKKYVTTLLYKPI
# Chain of Proto-oncogene tyrosine-protein kinase ROS (Homo sapiens) (P08922 whole entry): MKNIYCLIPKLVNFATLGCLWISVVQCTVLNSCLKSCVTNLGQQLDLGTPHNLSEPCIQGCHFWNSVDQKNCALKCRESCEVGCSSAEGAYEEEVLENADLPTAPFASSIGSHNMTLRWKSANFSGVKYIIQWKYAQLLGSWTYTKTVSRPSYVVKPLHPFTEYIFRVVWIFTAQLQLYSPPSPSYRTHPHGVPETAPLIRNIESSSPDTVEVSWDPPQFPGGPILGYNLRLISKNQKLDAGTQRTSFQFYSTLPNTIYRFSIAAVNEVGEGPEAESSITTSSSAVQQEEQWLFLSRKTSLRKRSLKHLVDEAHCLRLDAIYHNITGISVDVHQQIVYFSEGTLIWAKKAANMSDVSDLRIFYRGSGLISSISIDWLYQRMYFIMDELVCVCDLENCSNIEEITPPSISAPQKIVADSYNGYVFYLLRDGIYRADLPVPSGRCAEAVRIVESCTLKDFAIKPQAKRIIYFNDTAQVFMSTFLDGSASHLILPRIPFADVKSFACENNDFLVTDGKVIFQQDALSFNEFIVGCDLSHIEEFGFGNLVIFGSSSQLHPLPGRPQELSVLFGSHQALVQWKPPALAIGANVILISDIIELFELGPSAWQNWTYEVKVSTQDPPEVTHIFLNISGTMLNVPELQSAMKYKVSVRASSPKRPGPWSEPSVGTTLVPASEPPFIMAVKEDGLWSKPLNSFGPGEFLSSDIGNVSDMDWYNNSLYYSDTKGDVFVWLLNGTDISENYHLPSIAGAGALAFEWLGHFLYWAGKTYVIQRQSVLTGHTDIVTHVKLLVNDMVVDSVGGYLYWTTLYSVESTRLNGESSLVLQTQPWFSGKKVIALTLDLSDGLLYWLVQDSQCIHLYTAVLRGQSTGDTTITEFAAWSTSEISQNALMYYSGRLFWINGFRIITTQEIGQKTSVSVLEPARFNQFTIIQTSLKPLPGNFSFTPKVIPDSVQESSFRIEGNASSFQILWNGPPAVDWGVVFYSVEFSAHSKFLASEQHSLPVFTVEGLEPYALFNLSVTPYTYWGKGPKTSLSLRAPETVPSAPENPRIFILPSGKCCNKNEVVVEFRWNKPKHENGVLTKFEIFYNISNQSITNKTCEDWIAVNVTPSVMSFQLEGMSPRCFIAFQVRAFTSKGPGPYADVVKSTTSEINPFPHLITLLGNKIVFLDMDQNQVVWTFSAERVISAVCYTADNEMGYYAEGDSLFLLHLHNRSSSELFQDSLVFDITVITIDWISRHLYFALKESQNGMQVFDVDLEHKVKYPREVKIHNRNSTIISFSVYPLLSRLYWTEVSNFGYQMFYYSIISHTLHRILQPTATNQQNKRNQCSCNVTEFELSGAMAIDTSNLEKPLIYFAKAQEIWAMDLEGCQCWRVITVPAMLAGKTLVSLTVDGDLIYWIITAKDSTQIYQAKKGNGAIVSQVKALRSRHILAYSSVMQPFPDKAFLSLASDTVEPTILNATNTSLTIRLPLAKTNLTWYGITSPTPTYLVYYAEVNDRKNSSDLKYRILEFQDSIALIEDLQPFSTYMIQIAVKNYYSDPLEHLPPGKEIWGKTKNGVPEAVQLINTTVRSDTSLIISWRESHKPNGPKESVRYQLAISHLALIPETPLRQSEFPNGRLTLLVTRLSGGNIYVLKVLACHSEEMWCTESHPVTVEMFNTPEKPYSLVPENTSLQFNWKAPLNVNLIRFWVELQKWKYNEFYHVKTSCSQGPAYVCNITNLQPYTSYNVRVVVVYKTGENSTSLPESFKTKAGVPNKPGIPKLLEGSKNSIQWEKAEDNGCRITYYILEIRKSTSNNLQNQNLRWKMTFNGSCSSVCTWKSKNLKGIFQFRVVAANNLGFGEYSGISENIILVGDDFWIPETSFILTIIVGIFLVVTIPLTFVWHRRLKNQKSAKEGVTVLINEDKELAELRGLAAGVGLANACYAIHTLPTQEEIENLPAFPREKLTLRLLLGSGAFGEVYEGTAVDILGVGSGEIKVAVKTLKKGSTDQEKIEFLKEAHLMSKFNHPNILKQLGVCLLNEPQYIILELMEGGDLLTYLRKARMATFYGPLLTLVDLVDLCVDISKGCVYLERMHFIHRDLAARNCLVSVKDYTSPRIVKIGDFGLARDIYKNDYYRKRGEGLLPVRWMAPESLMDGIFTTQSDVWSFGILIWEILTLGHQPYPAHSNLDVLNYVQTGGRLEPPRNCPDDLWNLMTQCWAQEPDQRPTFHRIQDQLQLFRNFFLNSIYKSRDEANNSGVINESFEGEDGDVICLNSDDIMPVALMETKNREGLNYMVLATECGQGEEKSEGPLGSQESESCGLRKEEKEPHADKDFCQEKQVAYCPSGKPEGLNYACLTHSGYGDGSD
# Chain of Proto-oncogene tyrosine-protein kinase Src (Homo sapiens) (P12931 2-536 limits assumed): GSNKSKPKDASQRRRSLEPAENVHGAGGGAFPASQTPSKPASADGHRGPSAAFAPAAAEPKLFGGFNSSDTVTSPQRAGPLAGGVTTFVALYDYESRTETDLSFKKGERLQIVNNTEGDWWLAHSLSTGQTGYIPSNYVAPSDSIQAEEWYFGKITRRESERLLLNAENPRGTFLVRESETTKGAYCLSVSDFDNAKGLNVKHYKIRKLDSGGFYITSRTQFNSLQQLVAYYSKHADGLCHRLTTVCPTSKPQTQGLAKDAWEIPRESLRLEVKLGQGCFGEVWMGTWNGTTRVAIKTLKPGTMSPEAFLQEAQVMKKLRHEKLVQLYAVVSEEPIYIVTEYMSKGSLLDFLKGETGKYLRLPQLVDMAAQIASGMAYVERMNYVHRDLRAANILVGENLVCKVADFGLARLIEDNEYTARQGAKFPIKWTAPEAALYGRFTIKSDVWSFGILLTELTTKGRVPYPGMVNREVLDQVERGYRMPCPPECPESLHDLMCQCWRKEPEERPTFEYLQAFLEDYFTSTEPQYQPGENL
smiles,measurement,setting,value
CN1CCN(C(=O)C(C)(C)c2ccc(C(=O)Nc3cn4cc(-c5ccncc5)ccc4n3)cc2)CC1 [T3-CLK],viability at 5 µM,HCT-116 [1],86.6%
same,inhibition,[2],92%
same,inhibition,[3],89%
same,inhibition,[4],-3%
same,inhibition,[5],0%
same,inhibition,[6],-10%
same,inhibition,[7],1%
same,inhibition,[8],-1%
same,inhibition,[9],4%
same,inhibition,[10],-5%
same,inhibition,[11],12%
same,inhibition,[12],4%
same,inhibition,[13],6%
same,inhibition,[14],12%
same,inhibition,[15],16%
same,inhibition,[16],4%
same,inhibition,[17],-7%
same,inhibition,[18],9%
same,inhibition,[19],-4%
same,inhibition,[20],47%
same,inhibition,[21],-4%
same,inhibition,[22],4%
same,Activity,HCT-116 [23],34.8%
same,Activity,HCT-116 [24],46.9%
same,Activity,HCT-116 [25],1.5%
same,Activity,HCT-116 [26],18.4%
same,Activity,HCT-116 [27],34.5%
same,Activity,HCT-116 [28],20.7%
same,Activity,HCT-116 [29],20.5%
same,Activity,HCT-116 [30],20.4%

# From ChEMBL document CHEMBL5696444 (Nat Commun, 2017)
